# From patent EP4603105A1, “PHARMACEUTICAL COMPOSITION CONTAINING CYCLIC COMPOUND HAVING SELECTIVE KRAS INHIBITORY EFFECT AGAINST HRAS AND NRAS” (CHUGAI SEIYAKU KABUSHIKI KAISHA, priority 2022, dated 2024)
# pIC50: −log10 of the molar value. *1 amine or outer side, *2 acyl side, *3 side chain or, on linkers, in order; H or OH if unused. Where a SMILES comes first, the peptide text is derived from it. Bridges are numbered along the chain shown (N, C = ends). [ ]: non-standard residue; d: D form. The star is where a group is joined. hPhe(3,5-F2-4-CF3) = N[C@@H](CCc1cc(F)c(C(F)(F)F)c(F)c1)C(=O)O; X48 = CCCN([C@@H](Cc1ccc(OCC=[*:3])cc1)C(=O)[*:2])[*:1]; NPrPhe(4-CF3) = CCCN[C@@H](Cc1ccc(C(F)(F)F)cc1)C(=O)O; X17 = CN([C@@H](CCCCC=[*:3])C(=O)[*:2])[*:1]; X36 = CN([C@@H](CCCC=[*:3])C(=O)[*:2])[*:1]; dαMeAlg = C[C@](CC=[*:3])(N[*:1])C(=O)[*:2]; X47 = CN([C@@H](CCC=[*:3])C(=O)[*:2])[*:1]; NMeGly(cPent) = CN[C@H](C(=O)O)C1CCCC1; NMeSer(allyl) = C=CCOC[C@H](NC)C(=O)O; Hyp = O=C(O)[C@@H]1C[C@@H](O)CN1; NMeD = CN[C@@H](CC(=O)O)C(=O)O; Morpholide = C1CN(*)CCO1; Ac5c = NC1(C(=O)O)CCCC1; Sar = CNCC(=O)O
# Key:
# [1] = test system: human lung cancer strain NCI-H441; assay type: cell-based
# Procedure, shortened: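 Proliferation was scored by […] measured after the reagent was added to cultures kept at 37°C in 5% carbon dioxide.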
# [2] = target: GDP-bound NRAS wild-type protein (Homo sapiens, UniProt P01111); test: Binding to NRAS by surface plasmon resonance (SPR), KD and KD ratio to KRAS; details: ratio of KD for GDP-bound NRAS wild-type protein to KD for KRAS
# GDP-bound NRAS wild-type protein, sequence (P01111 whole entry): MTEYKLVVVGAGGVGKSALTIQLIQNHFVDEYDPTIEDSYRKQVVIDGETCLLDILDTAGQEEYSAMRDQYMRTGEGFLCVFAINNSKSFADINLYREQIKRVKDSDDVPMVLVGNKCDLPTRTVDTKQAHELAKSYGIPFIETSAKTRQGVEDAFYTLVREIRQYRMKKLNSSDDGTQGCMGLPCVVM
# Procedure, shortened: (§1)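 Compound binding is evaluated by SPR single-cycle kinetics, with concentrations added intermittently from low to high for 75 s each. Target surfaces carry GDP-loaded biotinylated Avi-RAS at about 100–300 RU, regenerated after each cycle; temperature 30°C. A 1:1 binding model gives KD.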
# HRAS wild-type protein = HRAS wild-type protein (Homo sapiens, UniProt P01112); test: Binding to HRAS by surface plasmon resonance (SPR), KD and KD ratio to KRAS; details: ratio of KD for HRAS wild-type protein to KD for KRAS
# HRAS wild-type protein, sequence (P01112 whole entry): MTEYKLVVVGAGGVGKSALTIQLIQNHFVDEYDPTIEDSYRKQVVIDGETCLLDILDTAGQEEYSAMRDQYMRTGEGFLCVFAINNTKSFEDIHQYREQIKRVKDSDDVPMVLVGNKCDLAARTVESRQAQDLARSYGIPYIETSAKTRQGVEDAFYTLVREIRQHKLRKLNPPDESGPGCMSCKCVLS
# Procedure, shortened: as §1
SMILES,pIC50 [1],NRAS /KRAS [2],HRAS /KRAS (HRAS wild-type protein)
CCO[C@@H]1C[C@H]2C(=O)NC3(CCC3)C(=O)N(C)[C@@H](C3CCCC3)C(=O)N(C)[C@H](C(=O)N(C)C)CC(=O)N(C)[C@@H](CC)C(=O)N[C@@H]([C@@H](C)CC)C(=O)N(C)CC(=O)N(C)[C@H]3CCCCN(C3=O)[C@@H](Cc3ccc(C(F)(F)F)cc3)C(=O)N(C)CC(=O)N[C@@H](CCc3ccc(C(F)(F)F)cc3F)C(=O)N2C1 [PP0885],7.94,C (A compound having a KD ratio of 0.1 or more and less than 3 is denoted as C),B (a compound having 3 or more and less than 10 is denoted as B)
CCO[C@@H]1C[C@H]2C(=O)NC3(CCC3)C(=O)N(C)[C@@H](C3CCCC3)C(=O)N(C)[C@H](C(=O)N(C)C)CC(=O)N(C)[C@@H](CC)C(=O)N[C@@H]([C@@H](C)CC)C(=O)N(C)CC(=O)N(C)[C@H]3CCCCCN(C3=O)[C@@H](Cc3ccc(C(F)(F)F)cc3)C(=O)N(C)CC(=O)N[C@@H](CCc3c(F)c(F)c(C(F)(F)F)c(F)c3F)C(=O)N2C1 [PP0891],6.81,B (a compound having 3 or more and less than 10 is denoted as B),B (a compound having 3 or more and less than 10 is denoted as B)
CCCN1C(=O)CN(C)C(=O)CN(C)C(=O)[C@H]([C@@H](C)CC)NC(=O)[C@@H]2CCCCOc3ccc(cc3)C[C@H]1C(=O)N(C)CC(=O)N[C@@H](CCc1cc(F)c(C(F)(F)F)c(F)c1)C(=O)N1C[C@H](OCC)C[C@H]1C(=O)NC1(CCCC1)C(=O)N(C)[C@@H](C1CCCC1)C(=O)N(C)[C@H](C(=O)N(C)C)CC(=O)N2C [PP0894],8.43,C (A compound having a KD ratio of 0.1 or more and less than 3 is denoted as C),C (A compound having a KD ratio of 0.1 or more and less than 3 is denoted as C)
CCCN1C(=O)CN(C)C(=O)CN(C)C(=O)[C@H]([C@@H](C)CC)NC(=O)[C@@H]2CCCCCCOc3ccc(cc3)C[C@H]1C(=O)N(C)CC(=O)N[C@@H](CCc1cc(F)c(C(F)(F)F)c(F)c1)C(=O)N1C[C@H](OCC)C[C@H]1C(=O)NC1(CCCC1)C(=O)N(C)[C@@H](C1CCCC1)C(=O)N(C)[C@H](C(=O)N(C)C)CC(=O)N2C [PP0896],8.51,C (A compound having a KD ratio of 0.1 or more and less than 3 is denoted as C),C (A compound having a KD ratio of 0.1 or more and less than 3 is denoted as C)
CCCN1C(=O)CN(C)C(=O)CN(C)C(=O)[C@H]([C@@H](C)CC)NC(=O)[C@@H]2CCCCCCC[C@@](C)(NC(=O)[C@@H]3C[C@@H](OCC)CN3C(=O)[C@H](CCc3cc(F)c(C(F)(F)F)c(F)c3)NC(=O)CN(C)C(=O)[C@@H]1Cc1ccc(C(F)(F)F)cc1)C(=O)N(C)[C@@H](C1CCCC1)C(=O)N(C)[C@H](C(=O)N1CCOCC1)CC(=O)N2C [PP0898],6.92,B (a compound having 3 or more and less than 10 is denoted as B),B (a compound having 3 or more and less than 10 is denoted as B)
CCCN1C(=O)CN(C)C(=O)CN(C)C(=O)[C@H]([C@@H](C)CC)NC(=O)[C@@H]2COCCCC[C@@](C)(NC(=O)[C@@H]3C[C@@H](OCC)CN3C(=O)[C@H](CCc3cc(F)c(C(F)(F)F)c(F)c3)NC(=O)CN(C)C(=O)[C@@H]1Cc1ccc(C(F)(F)F)cc1)C(=O)N(C)[C@@H](C1CCCC1)C(=O)N(C)[C@H](C(=O)N1CCOCC1)CC(=O)N2C [PP0899],6.03,A (a compound having 10 or more and less than 20 is denoted as A),B (a compound having 3 or more and less than 10 is denoted as B)
"CCCN1C(=O)CN(C)C(=O)CN(C)C(=O)[C@H]([C@@H](C)CC)NC(=O)[C@@H]2CCCCC=CC[C@@](C)(NC(=O)[C@@H]3C[C@@H](OCC)CN3C(=O)[C@H](CCc3cc(F)c(C(F)(F)F)c(F)c3)NC(=O)CN(C)C(=O)[C@@H]1Cc1ccc(C(F)(F)F)cc1)C(=O)N(C)[C@@H](C1CCCC1)C(=O)N(C)[C@H](C(=O)N1CCOCC1)CC(=O)N2C [PP0902] ([X17]I[Sar][Sar][NPrPhe(4-CF3)][Sar][hPhe(3,5-F2-4-CF3)][Hyp](Et)[dαMeAlg][NMeGly(cPent)][NMeD]-Morpholide; staple 1-9; lactam N-11)",7.14,A (a compound having 10 or more and less than 20 is denoted as A),B (a compound having 3 or more and less than 10 is denoted as B)
CCO[C@@H]1C[C@H]2C(=O)NC3(CCC3)C(=O)N(C)[C@@H](C3CCCC3)C(=O)N(C)[C@H](C(=O)N(C)C)CC(=O)N(C)[C@@H](CC)C(=O)N[C@@H]([C@@H](C)CC)C(=O)N(C)CC(=O)N(C)[C@H]3CCCCCN(C3=O)[C@@H](Cc3ccc(F)c(Cl)c3)C(=O)N(C)CC(=O)N[C@@H](CCc3cc(F)c(C(F)(F)F)c(F)c3)C(=O)N2C1 [PP0909],7.24,B (a compound having 3 or more and less than 10 is denoted as B),B (a compound having 3 or more and less than 10 is denoted as B)

# Now from value to molecule, other results behind:
pIC50 [1],SMILES,NRAS /KRAS [2],HRAS /KRAS (HRAS wild-type protein)
7.84,CCO[C@@H]1C[C@H]2C(=O)NC3(CCC3)C(=O)N(C)[C@@H](C3CCCC3)C(=O)N(C)[C@H](C(=O)N(C)C)CC(=O)N(C)[C@@H](CC)C(=O)N[C@@H]([C@@H](C)CC)C(=O)N(C)CC(=O)N(C)[C@H]3CCCCN(C3=O)[C@@H](Cc3ccc(C(F)(F)F)cc3)C(=O)N(C)CC(=O)N[C@@H](CCc3c(F)c(F)c(C(F)(F)F)c(F)c3F)C(=O)N2C1 [PP0886],C (A compound having a KD ratio of 0.1 or more and less than 3 is denoted as C),B (a compound having 3 or more and less than 10 is denoted as B)
7.72,CCO[C@@H]1C[C@H]2C(=O)NC3(CCC3)C(=O)N(C)[C@@H](C3CCCC3)C(=O)N(C)[C@H](C(=O)N(C)C)CC(=O)N(C)[C@@H](CC)C(=O)N[C@@H]([C@@H](C)CC)C(=O)N(C)CC(=O)N(C)[C@H]3CCCCN(C3=O)[C@@H](Cc3ccc(C(F)(F)F)cc3)C(=O)N(C)CC(=O)N[C@@H](CCc3ccc4sccc4c3)C(=O)N2C1 [PP0887],C (A compound having a KD ratio of 0.1 or more and less than 3 is denoted as C),C (A compound having a KD ratio of 0.1 or more and less than 3 is denoted as C)
8.66,CCCN1C(=O)CN(C)C(=O)CN(C)C(=O)[C@H]([C@@H](C)CC)NC(=O)[C@@H]2CCCCCOc3ccc(cc3)C[C@H]1C(=O)N(C)CC(=O)N[C@@H](CCc1cc(F)c(C(F)(F)F)c(F)c1)C(=O)N1C[C@H](OCC)C[C@H]1C(=O)NC1(CCCC1)C(=O)N(C)[C@@H](C1CCCC1)C(=O)N(C)[C@H](C(=O)N(C)C)CC(=O)N2C [PP0895],C (A compound having a KD ratio of 0.1 or more and less than 3 is denoted as C),C (A compound having a KD ratio of 0.1 or more and less than 3 is denoted as C)
8.31,"CCCN1C(=O)CN(C)C(=O)CN(C)C(=O)[C@H]([C@@H](C)CC)NC(=O)[C@@H]2CCC=CCOc3ccc(cc3)C[C@H]1C(=O)N(C)CC(=O)N[C@@H](CCc1cc(F)c(C(F)(F)F)c(F)c1)C(=O)N1C[C@H](OCC)C[C@H]1C(=O)NC1(CCCC1)C(=O)N(C)[C@@H](C1CCCC1)C(=O)N(C)[C@H](C(=O)N(C)C)CC(=O)N2C [PP0900] ([X47]I[Sar][Sar][X48][Sar][hPhe(3,5-F2-4-CF3)][Hyp](Et)[Ac5c][NMeGly(cPent)][NMeD]-NMe2; staple 1-5; lactam N-11)",C (A compound having a KD ratio of 0.1 or more and less than 3 is denoted as C),C (A compound having a KD ratio of 0.1 or more and less than 3 is denoted as C)
6.48,"CCCN1C(=O)CN(C)C(=O)CN(C)C(=O)[C@H]([C@@H](C)CC)NC(=O)[C@@H]2CCCC=CC[C@@](C)(NC(=O)[C@@H]3C[C@@H](OCC)CN3C(=O)[C@H](CCc3cc(F)c(C(F)(F)F)c(F)c3)NC(=O)CN(C)C(=O)[C@@H]1Cc1ccc(C(F)(F)F)cc1)C(=O)N(C)[C@@H](C1CCCC1)C(=O)N(C)[C@H](C(=O)N1CCOCC1)CC(=O)N2C [PP0901] ([X36]I[Sar][Sar][NPrPhe(4-CF3)][Sar][hPhe(3,5-F2-4-CF3)][Hyp](Et)[dαMeAlg][NMeGly(cPent)][NMeD]-Morpholide; staple 1-9; lactam N-11)",B (a compound having 3 or more and less than 10 is denoted as B),B (a compound having 3 or more and less than 10 is denoted as B)
6.22,"CCCN1C(=O)CN(C)C(=O)CN(C)C(=O)[C@H]([C@@H](C)CC)NC(=O)[C@@H]2COCC=CC[C@@](C)(NC(=O)[C@@H]3C[C@@H](OCC)CN3C(=O)[C@H](CCc3cc(F)c(C(F)(F)F)c(F)c3)NC(=O)CN(C)C(=O)[C@@H]1Cc1ccc(C(F)(F)F)cc1)C(=O)N(C)[C@@H](C1CCCC1)C(=O)N(C)[C@H](C(=O)N1CCOCC1)CC(=O)N2C [PP0903] ([NMeSer(allyl)]I[Sar][Sar][NPrPhe(4-CF3)][Sar][hPhe(3,5-F2-4-CF3)][Hyp](Et)[dαMeAlg][NMeGly(cPent)][NMeD]-Morpholide; staple 1-9; lactam N-11)",B (a compound having 3 or more and less than 10 is denoted as B),C (A compound having a KD ratio of 0.1 or more and less than 3 is denoted as C)
